# Source: PMC11361989, “A simple HPLC–MS/MS method for the determination of polymyxin B in human plasma and its application in the pharmacokinetic study in elderly patients infected with multidrug-resistant Gram-negative bacteria” (Frontiers in Pharmacology, 2024)
# Read-outs that look alike come from different tables or passages of the source.
# What was measured:
# [1] = Stability of working solutions of PB1 and PB2; assay type: physicochemical
# Experimental: All the above solutions were stored at −70°C.
# [2] = Stability of PB1 and PB2 in human whole blood at room temperature or 4°C; conditions: clinical TDM whole blood, plasma by HPLC-MS/MS
# Experimental: Moreover, the stability of PB1 and PB2 in whole blood was determined using redundant TDM whole-blood samples. A clinical whole-blood sample was obtained and immediately divided into 10 aliquots and placed at room temperature (25°C) or 4°C. At the designated time point, one of the aliquots was removed and immediately centrifuged to obtain 100 μL of a plasma sample. Then, all plasma samples were stored at −70°C until further analysis. Two parallel samples were tested at each storage condition, and the results were expressed as the percentage ratios of PB1 or PB2 concentrations measured at different time points to the initial PB1 or PB2 concentration.
# [3] = Stability of PB1 and PB2 in human plasma under different storage conditions; conditions: human plasma, n = 3
# Experimental: The stock solutions of the calibrators and quality control (QC) samples should be prepared separately in the same way. The PB stock solution for calibrators and QC samples was prepared in water (1% FA) at 400.48 μg/mL for PB1 and 40.84 μg/mL for PB2. Consequently, working solutions for construction of calibrators and QC were prepared by serially diluting the stock solution with a 1% aqueous solution of FA. The concentrations of the working solutions for calibrators were 10.01, 30.03, 50.05, 100.12, 150.18, and 200.24 μg/mL for PB1 and 1.02, 3.06, 5.10, 10.21, 15.31, and 20.42 μg/mL for PB2. The concentrations of working solutions for QCs were prepared at 20.02 μg/mL (LQC), 90.11 μg/mL (MQC), and 180.22 μg/mL (HQC) for PB1 and 2.04 μg/mL (LQC), 9.18 μg/mL (MQC), and 18.36 μg/mL (HQC) for PB2. The working solution of IS (10.00 μg/mL) was prepared using methanol. All the above solutions were stored at −70°C. The calibrators and QC samples were obtained by spiking 90 μL of blank plasma with 10 μL of working solution at the corresponding concentration. The standard curves were in the range of 1.00–20.02 μg/mL and 0.10–2.04 μg/mL for PB1 and PB2, respectively.
# Typically, 100 μL of the plasma sample was mixed with 10 μL IS working solution, and then, 300 μL 0.1% FA in methanol was added to the sample for protein precipitation. The mixture was vortexed for 3 min and centrifuged in an Eppendorf 5415D microcentrifuge (Eppendorf, Hamburg, Germany) at 11,000 g rpm for 10 min. Subsequently, 200 μL of the supernatant was transferred into a clean polypropylene tube and diluted with 150 μL of 0.1% FA in water. The mixture solution was vortexed for 3 min and centrifuged at 11,000 rpm for 10 min using the same centrifuge. Finally, 200 μL of the supernatant was transferred into an injection bottle, and 10 μL was injected into the HPLC–MS/MS for analysis.
# The stability of the working solutions of PB1 and PB2 was evaluated. The short-term stability and long-term stability of PB1 and PB2 in human plasma were evaluated under the following conditions: placed at room temperature or 4°C for 24 h, frozen and thawed three times, and stored at −70°C for 85 days. The stability evaluation was conducted for both LQC and HQC concentrations.
substance,measurement,setting,value
polymyxin B2 [PB2],Stability of working solutions,[1],remained stable after storage at −70 °C for up to 7 days but not beyond 10 days
polymyxin B1 [PB1],Stability of working solutions,"[1]; working solutions in 1% aqueous formic acid at LQC and HQC concentrations, stored at −70°C",remained stable after storage at −70 °C for up to 7 days but not beyond 10 days
same,Concentration after storage in human blood,"[2]; 4°C, 0 h (initial), parallel sample 1",4690 ng/mL
same,Concentration after storage in human blood,"[2]; 4°C, 0 h (initial), parallel sample 2",4720 ng/mL
same,Concentration after storage in human blood,"[2]; 4°C, 0.5 h, parallel sample 1",4290 ng/mL
same,Concentration after storage in human blood,"[2]; 4°C, 0.5 h, parallel sample 2",4120 ng/mL
same,Concentration after storage in human blood,"[2]; 4°C, 1 h, parallel sample 1",4420 ng/mL
same,Concentration after storage in human blood,"[2]; 4°C, 1 h, parallel sample 2",4350 ng/mL
same,Concentration after storage in human blood,"[2]; 4°C, 2 h, parallel sample 1",5100 ng/mL
same,Concentration after storage in human blood,"[2]; 4°C, 2 h, parallel sample 2",4890 ng/mL
same,Concentration after storage in human blood,"[2]; 4°C, 3 h, parallel sample 1",5250 ng/mL
same,Concentration after storage in human blood,"[2]; 4°C, 3 h, parallel sample 2",5320 ng/mL
same,Concentration after storage in human blood,"[2]; 4°C, 4 h, parallel sample 1",5130 ng/mL
same,Concentration after storage in human blood,"[2]; 4°C, 4 h, parallel sample 2",4950 ng/mL
same,Concentration after storage in human blood,"[2]; 4°C, 5 h, parallel sample 1",4820 ng/mL
same,Concentration after storage in human blood,"[2]; 4°C, 5 h, parallel sample 2",4820 ng/mL
same,Concentration after storage in human blood,"[2]; 4°C, 8 h, parallel sample 1",4460 ng/mL
same,Concentration after storage in human blood,"[2]; 4°C, 8 h, parallel sample 2",4850 ng/mL
same,Concentration after storage in human blood,"[2]; 4°C, 12 h, parallel sample 1",4560 ng/mL
same,Concentration after storage in human blood,"[2]; 4°C, 12 h, parallel sample 2",4680 ng/mL
same,Concentration after storage in human blood,"[2]; 4°C, 24 h, parallel sample 1",4690 ng/mL
same,Concentration after storage in human blood,"[2]; 4°C, 24 h, parallel sample 2",5280 ng/mL
same,Concentration after storage in human blood,"[2]; room temperature (25°C), 0 h (initial), parallel sample 1",6890 ng/mL
same,Concentration after storage in human blood,"[2]; room temperature (25°C), 0 h (initial), parallel sample 2",6660 ng/mL
same,Concentration after storage in human blood,"[2]; room temperature (25°C), 0.5 h, parallel sample 1",6830 ng/mL
same,Concentration after storage in human blood,"[2]; room temperature (25°C), 0.5 h, parallel sample 2",6630 ng/mL
same,Concentration after storage in human blood,"[2]; room temperature (25°C), 1 h, parallel sample 1",6130 ng/mL
same,Concentration after storage in human blood,"[2]; room temperature (25°C), 1 h, parallel sample 2",6130 ng/mL
same,Concentration after storage in human blood,"[2]; room temperature (25°C), 2 h, parallel sample 1",6700 ng/mL
same,Concentration after storage in human blood,"[2]; room temperature (25°C), 2 h, parallel sample 2",6150 ng/mL
same,Concentration after storage in human blood,"[2]; room temperature (25°C), 3 h, parallel sample 1",7160 ng/mL
same,Concentration after storage in human blood,"[2]; room temperature (25°C), 3 h, parallel sample 2",6780 ng/mL
same,Concentration after storage in human blood,"[2]; room temperature (25°C), 4 h, parallel sample 1",6420 ng/mL
same,Concentration after storage in human blood,"[2]; room temperature (25°C), 4 h, parallel sample 2",6420 ng/mL
same,Concentration after storage in human blood,"[2]; room temperature (25°C), 5 h, parallel sample 1",6890 ng/mL
same,Concentration after storage in human blood,"[2]; room temperature (25°C), 5 h, parallel sample 2",6710 ng/mL
same,Concentration after storage in human blood,"[2]; room temperature (25°C), 8 h, parallel sample 1",6970 ng/mL
same,Concentration after storage in human blood,"[2]; room temperature (25°C), 8 h, parallel sample 2",6650 ng/mL
same,Concentration after storage in human blood,"[2]; room temperature (25°C), 12 h, parallel sample 1",7950 ng/mL
same,Concentration after storage in human blood,"[2]; room temperature (25°C), 12 h, parallel sample 2",8190 ng/mL
same,Concentration after storage in human blood,"[2]; room temperature (25°C), 24 h, parallel sample 1",7050 ng/mL
same,Concentration after storage in human blood,"[2]; room temperature (25°C), 24 h, parallel sample 2",6720 ng/mL
same,"Stability in human plasma, RE","[3]; 4°C for 24 h, target PB1 2.00 / PB2 0.20 μg/mL (LQC)",+3.25%
same,"Stability in human plasma, RE","[3]; 4°C for 24 h, target PB1 9.01 / PB2 0.92 μg/mL (MQC)",−7.38%
same,"Stability in human plasma, RE","[3]; 4°C for 24 h, target PB1 18.02 / PB2 1.84 μg/mL (HQC)",−3.87%
same,"Stability in human plasma, RE","[3]; room temp. for 24 h, target PB1 2.00 / PB2 0.20 μg/mL (LQC)",−11.99%
same,"Stability in human plasma, RE","[3]; room temp. for 24 h, target PB1 9.01 / PB2 0.92 μg/mL (MQC)",+5.18%
same,"Stability in human plasma, RE","[3]; room temp. for 24 h, target PB1 18.02 / PB2 1.84 μg/mL (HQC)",+6.19%
same,"Stability in human plasma, RE","[3]; three freeze–thaw cycles, target PB1 2.00 / PB2 0.20 μg/mL (LQC)",−4.15%
same,"Stability in human plasma, RE","[3]; three freeze–thaw cycles, target PB1 9.01 / PB2 0.92 μg/mL (MQC)",+3.09%
same,"Stability in human plasma, RE","[3]; three freeze–thaw cycles, target PB1 18.02 / PB2 1.84 μg/mL (HQC)",+1.01%
same,"Stability in human plasma, RE","[3]; −70°C for 85 days, target PB1 2.00 / PB2 0.20 μg/mL (LQC)",−2.50%
same,"Stability in human plasma, RE","[3]; −70°C for 85 days, target PB1 9.01 / PB2 0.92 μg/mL (MQC)",+0.10%
same,"Stability in human plasma, RE","[3]; −70°C for 85 days, target PB1 18.02 / PB2 1.84 μg/mL (HQC)",+1.95%
